Source: patent publication US20070270358A1, “Cosmetic and/or Pharmaceutical Composition for the Treatment of the Rosacea” (priority 2004, published 2007)
Read-outs that look alike come from different tables or passages of the source.

Tests used:
human keratinocytes [1] = experiment: Dosage of ROS (DCF fluorescence) after UV-induced oxidative stress; assay type: cell-based; conditions: for fluorescence, directly proportional to the quantity of ROS (average value) / anti-radical protection percentage: after 5 minutes exposure to UV
Protocol: The substance to be tested was diluted in a salt solution to the final concentrations required. The dichlorofluorescein acetate (DCF) was diluted apart in a special buffer. The DCF reacts with the free radicals if present giving rise to a fluorescent derivative, and the fluorometry reading gives a quantity related to the presence of this substance in the cells analyzed. A sufficient number of cells (30,000 cells/well) is sown in the wells of a […]. After a pre-incubation period overnight with the different sample concentrations, the culture medium is sucked out of the wells and replaced with 500 μl of DCF solution. The plates are placed in a CO2 thermo regulator at 37° C. to incubate for 15 minutes. At this point the DCF solution is discarded. After a 5 minute period of exposure to UV rays, the oxidative stress is interrupted, and the fluorometry reading taken. The lamp used in the experiments reproduces the solar spectrum with a constant UVA emission field of between 315 and 400 nm. The emission of UVB is appropriately shielded to avoid direct cytotoxic damage to the cell cultures. The plate containing the cells is irradiated at room temperature with an intensity of 1.7 mW/cm^2 of UVA […].
Reading of the fluorometry is carried out at the excitation wave length of 485 nm and emission of 530 nm directly on the plates (Toxicol. Letters 1997-93: 47-54).
(§1) • Control negative (C−): cells not treated • Control positive (C+): cells exposed to UV without protective treatment • Samples: • cells exposed to UV in the presence of protective substances: • Vitamin C 0.1 mg/ml (anti-oxidant of comparison) • SOL.—Solution 20% dimethyl sulfone
The results are given in terms of fluorescence, that are directly proportional to the quantity of ROS
The anti-radical protection percentage offered by the substance is calculated using the following formula: […]

human keratinocytes [2] = assay type: cell-based
Protocol: A second test, through the determination of the vitality of the cells using the MTT method, enables evaluation of the total damage suffered by the cells (in the absence of and following oxidative stress) and the protective effect produced by the substance tested in different concentrations.
Before and following exposure to UV rays, an MTT test is carried out to evaluate the toxic impact on the cell energetic system (mitochondrions) compared with cells not protected from oxidative stress a cells not exposed to stress. The MTT test is simple, accurate and gives reproducible results. This method, originally developed by Mossman […], is based on a yellow substance in solution. The mitochondrial dehydrogenize of live cells is able to cut the tetrazolium ring causing the formation of insoluble purple coloured salts. The crystals can de dissolved in acidified isopropanol and the purple solution formed can be spectrophotometrically dosed. An increase/decrease in number of the live cells can be evaluated as corresponding to the increase or decrease in the optical absorption due to formazano salts, giving a quantification of the global cytotoxic event.
as §1
Cellular vitality as evaluated in the absence of oxidative stress (UV−) and after 5 minutes of exposure to […]
Absorption values (O.D) at 540 nm (in proportion to the number of cells). Evaluation of cellular vitality in the absence of oxidative stress

Structure (SMILES): O=C1O[C@H]([C@@H](O)CO)C(O)=C1O [VIT C, Vitamin C, reference compound]
- fluorescence, directly proportional to the quantity of ROS (average value) (human keratinocytes [1]; 0.1 mg/ml): 20837
- cellular vitality, absorption value at 540 nm (average value) (human keratinocytes [2]; 0.1 mg/ml, after 5 minutes exposure to UV (UV+)): 2.904 O.D
- cellular vitality, absorption value at 540 nm (average value) (human keratinocytes [2]; human, 0.1 mg/ml): 2.977 O.D

Structure (SMILES): CS(C)(=O)=O [MSM SOL. 20%, dimethyl sulfone]
- anti-radical protection percentage (human keratinocytes [1]; 0.003 mg/ml): 41.2%
- fluorescence, directly proportional to the quantity of ROS (average value) (human keratinocytes [1]; 0.003 mg/ml): 17820
- anti-radical protection percentage (human keratinocytes [1]; 0.01 mg/ml): 37.5%
- fluorescence, directly proportional to the quantity of ROS (average value) (human keratinocytes [1]; 0.01 mg/ml): 18887
- anti-radical protection percentage (human keratinocytes [1]; 0.03 mg/ml): 34.8%
- fluorescence, directly proportional to the quantity of ROS (average value) (human keratinocytes [1]; 0.03 mg/ml): 19686
- anti-radical protection percentage (human keratinocytes [1]; 0.09 mg/ml): 43.7%
- fluorescence, directly proportional to the quantity of ROS (average value) (human keratinocytes [1]; 0.09 mg/ml): 17117
- anti-radical protection percentage (human keratinocytes [1]; 0.28 mg/ml): 38.3%
- fluorescence, directly proportional to the quantity of ROS (average value) (human keratinocytes [1]; 0.28 mg/ml): 18675
- anti-radical protection percentage (human keratinocytes [1]; 0.83 mg/ml): 44.6%
- fluorescence, directly proportional to the quantity of ROS (average value) (human keratinocytes [1]; 0.83 mg/ml): 16848
- anti-radical protection percentage (human keratinocytes [1]; 2.5 mg/ml): 41.4%
- fluorescence, directly proportional to the quantity of ROS (average value) (human keratinocytes [1]; 2.5 mg/ml): 17782
- antioxidant activity: presence of ROS in keratinocyte cultures subjected to oxidative stress (human keratinocytes [1]; concentration between 0.003 and 2.5 mg/ml): significantly reduces the presence of reactive oxygen species (ROS)
- cellular vitality, absorption value at 540 nm (average value) (human keratinocytes [2]; 0.003 mg/ml, after 5 minutes exposure to UV (UV+)): 3.020 O.D
- cellular vitality, absorption value at 540 nm (average value) (human keratinocytes [2]; 0.01 mg/ml, after 5 minutes exposure to UV (UV+)): 2.977 O.D
- cellular vitality, absorption value at 540 nm (average value) (human keratinocytes [2]; 0.03 mg/ml, after 5 minutes exposure to UV (UV+)): 2.940 O.D
- cellular vitality, absorption value at 540 nm (average value) (human keratinocytes [2]; 0.09 mg/ml, after 5 minutes exposure to UV (UV+)): 2.987 O.D
- cellular vitality, absorption value at 540 nm (average value) (human keratinocytes [2]; 0.28 mg/ml, after 5 minutes exposure to UV (UV+)): 2.832 O.D
- cellular vitality, absorption value at 540 nm (average value) (human keratinocytes [2]; 0.83 mg/ml, after 5 minutes exposure to UV (UV+)): 2.838 O.D
- cellular vitality, absorption value at 540 nm (average value) (human keratinocytes [2]; 2.5 mg/ml, after 5 minutes exposure to UV (UV+)): 2.777 O.D
- cytoprotective activity: cellular vitality following exposure to UV radiation (human keratinocytes [2]; concentration between 0.003 and 2.5 mg/ml, versus non-treated keratinocytes): cellular vitality of treated Keratinocytes is greater compared with non-treated Keratinocytes
